These are literature values, as cited in patent US5468499A, “Liposomes containing the salt of phosphoramide mustard and related compounds” (Ohio State University, priority 1993, dated 1995).

For this data set, the system named is tumor.

Regarding `O=P1(N(CCCl)CCCl)NCCCO1` (stereo not shown) [cyclophosphamide], the “tumoricidal activity of the drug itself” value is given as “not directly tumoricidal”.
